The source of these data is patent US6818656B2, “Method and composition for treatment of irritable bowel disease” (University of Florida, priority 2001, dated 2004).

A value given as a limit tells only on which side of the number the result lay.

The test system of data set [1] is stress-induced fecal output. Nature of the data set: Psychological stress-induced (water avoidance) IBS model, SC administration. The format is in vivo. The conditions noted are these: for mortality of rats after drug administration: ~24 h post-dosing. The text has this:
(§1) For drug preparation and administration, the compounds were put into solution with sterile normal saline and sonicated briefly, if necessary. The drugs were made up at concentrations such that the rats received the drugs PO or SC at the rate of 1 cc per kilogram. Mice received the CHX(3,4,3)-trans IP at 1 cc per 100 grams. The solutions were made fresh the day of the study. Control animals received an equivalent amount of saline PO or SC.
Animal care and experimental procedures were approved by the Institutional Animal Care and Use Committee. Male Sprague-Dawley rats (250-350 g, Harlan Sprague-Dawley, Indianapolis, Ind.) were housed in polycarbonate cages in a temperature- and humidity-controlled room with a 12-hour light/dark cycle. The experiments were performed at the same time of the day to decrease diurnal variability. A typical experiment involved 20 rats: 5 saline-treated controls and 5 pretreated with polyamine analogues at each of three doses as either a SC injection or a PO gavage. The rats in the SC studies and in one set of experiments involving PO administration were allowed ad libitum access to a standard rodent diet and tap water until the morning of the experiment. Stress was initiated 30 minutes post drug as described below. In another set of experiments involving PO administration, the animals were fasted overnight but were allowed free access to water. […] In a final experiment, non-stressed control rats were injected with saline SC and housed in individual polycarbonate cages. The fecal output (number of pellets) of the stressed and unstressed animals was recorded at 30-min intervals for a 6-h period, during which they received no food or water.
(§2) To initiate the stress, water was added to each cage to a depth of at least 4.5 cm, i.e., within 0.5 cm of the top of the Pyrex dish. To avoid contact with water, the rats stand on the glass dish for the 6 h of the study. Stool output was expressed as the total number of fecal pellets excreted over the 6-h collection period. Percent reduction was calculated by dividing the mean value from the treated animals (T) by the mean value from the control animals (C), subtracting the resulting quotient from 1.0, and multiplying by 100 [i.e., (1.0−T/C)×100].
(§3) A one-tailed t-test assuming unequal variance was performed on the stool output data of the treated vs control (0 mg/kg) animals for each compound. A value of P<0.05 was considered significant.
The psychological stress-induced IBS model involves subjecting the rats to an aversive stimulus (water) and observing the increase in fecal output over a period of time. […] Control rats received an equivalent amount of saline SC.

For data set [2], the system named is castor oil-induced diarrhea. Conditions: cited from earlier work.
Data set [3] has as its system stress-induced fecal output. In words: Psychological stress-induced (water avoidance) IBS model, SC administration. The format is in vivo. Conditions: 57.8 μmol/kg SC; experiment stopped after 2 h, results after 2 h.
Data set [4] has as its system stress-induced fecal output. Nature of the data set: Psychological stress-induced (water avoidance) IBS model, PO administration by gavage. The format is in vivo, rat. The conditions noted are these: 6-hr collection.
Text: as §1
Animal care and experimental procedures were approved by the Institutional Animal Care and Use Committee. Male Sprague-Dawley rats (250-350 g, Harlan Sprague-Dawley, Indianapolis, Ind.) were housed in polycarbonate cages in a temperature- and humidity-controlled room with a 12-hour light/dark cycle. The experiments were performed at the same time of the day to decrease diurnal variability. A typical experiment involved 20 rats: 5 saline-treated controls and 5 pretreated with polyamine analogues at each of three doses as either a SC injection or a PO gavage. The rats in the SC studies and in one set of experiments involving PO administration were allowed ad libitum access to a standard rodent diet and tap water until the morning of the experiment. Stress was initiated 30 minutes post drug as described below. In another set of experiments involving PO administration, the animals were fasted overnight but were allowed free access to water. The animals were then stressed from ½ h to 2 h post-drug (data not shown). In a final experiment, non-stressed control rats were injected with saline SC and housed in individual polycarbonate cages. The fecal output (number of pellets) of the stressed and unstressed animals was recorded at 30-min intervals for a 6-h period, during which they received no food or water.
as §2, with “Once the drug had been administered, the animals were housed individually in polycarbonate cages containing a clear 70×50 mm Pyrex crystallization dish (Fisher, Pittsburgh, Pa.) inverted in the center and held in place with vacuum grease. To initiate” for “To initiate”
as §3
Because an orally active compound would be desirable for the treatment of IBS, selected analogues utilizing oral administration in the same model were assessed. In the initial studies animals were utilized that had been fasted overnight. Rodents were then given the drug of interest PO by gavage and stressed ½ h, 1 h, or 2 h post-drug. Unfortunately, because of the low baseline stool output in fasted control rats, the reductions in fecal output observed upon drug administration cannot be reported with any confidence (data not shown). Thereafter, only non-fasted animals were employed and were given the agents by gavage at doses of 11.6, 23.2, 57.8, or 115.6:mol/kg 30 minutes before initiating the stress. […] At doses of 11.6 and 23.2:mol/kg, CHX(3,4,3)-trans reduced stooling by about 80% (P=0.001 and <0.001, respectively). DEHSPM was effective at a dose of […]:mol/kg (40% diminution of fecal output; P<0.01), and DE(5,4,5) was active at doses of 23.2 and 57.8:mol/kg (55 and 73% reductions in fecal output, respectively; P<0.001 for both doses).

The subject of data set [5] is stress-induced fecal output. The data set is described as above. The conditions noted are these: 2.3 μmol/kg PO, non-fasted, stress 30 min post drug, 6-hr collection. The format is in vivo, rat.
The nature of data set [6]: Acute toxicity assessment, single intraperitoneal injection. It is filed as in vivo. The method, then:
For the acute toxicity assessment the CHX(3,4,3)-trans was administered to female CD-1 mice (Charles River, Wilmington, Mass.) as a single intraperitoneal (IP) injection. The animals were carefully observed post-dosing and were scored 2 h after administration of the drug.
as §1

Setting [7] is: 2.3 μmol/kg SC, stress 30 min post drug, 6-h collection.
The mark [8] stands for this setting: 57.8 μmol/kg SC, listed as DBSPM.
Setting [9] is: Rattus norvegicus, sc, 2 h, read-out: % Reduction.
[10] abbreviates: Rattus norvegicus, 2.3 μmol/kg SC, vs stressed controls, 6 h, read-out: % Reduction.

As to `CCCCNCCCNCCCCNCCCNCCCC` [Compound 5], the “Stool Output” value is on record as 14.0 ± 4.8 number of fecal pellets in data set [1] (setting [7]); 0 ± 0 number of fecal pellets in data set [1] (11.6 μmol/kg SC, experiment stopped after 2 h, results after 2 h); 0 ± 0 number of fecal pellets in data set [3]. In addition, the “toxic effects observed in stressed rats” value in data set [1] (11.6 μmol/kg SC) was “^eDue to severe CNS toxicity, the experiment was stopped after 2 h; the results after 2 h are reported”; in data set [1] (11.6 μmol/kg SC, listed as DBSPM), “severe neurotoxicity”; in data set [1] (57.8 μmol/kg SC) it was “^eDue to severe CNS toxicity, the experiment was stopped after 2 h; the results after 2 h are reported”; in data set [1] (setting [8]) it was “severe neurotoxicity”. In data set [1] (11.6 μmol/kg SC, experiment stopped after 2 h, results after 2 h, listed as DBSPM), the “% Reduction” value was “completely eliminated fecal output”. Moreover, the “mortality of rats after drug administration” value in data set [1] (57.8 μmol/kg SC) is on record as “^fAll rats in this group died ˜24 h after drug administration”; in data set [1] (setting [8]), “died within ˜24 h post-dosing”. Besides, the inhibition in vivo at 11.6 µmol/kg in data set [1] (setting [9]) was 100%. Besides, the inhibition in vivo at 57.8 µmol/kg in data set [1] (setting [9]) came out at 100%. Besides, the inhibition in vivo at 2.3 µmol/kg in data set [1] (setting [10]) was 39%. Further, in data set [2] (doses equivalent to a 5 mg/kg dose of DEHSPM), the “neurotoxicity in rats at subtherapeutic doses” value was “Signs of neurotoxicity”.

On to `CCNCCCN[C@H]1CC[C@H](NCCCNCC)CC1` [Compound 12, N,N′-bis[3-(ethylamino)propyl]-trans-1,4-cyclohexanediamine], for which the “Stool Output” value was 5.4 ± 2.1 number of fecal pellets in data set [1] (0.0726 μmol/kg SC, 6-h collection); 2.2 ± 1.3 number of fecal pellets in data set [1] (0.145 μmol/kg SC, 6-h collection); 0.6 ± 0.9 number of fecal pellets in data set [1] (0.29 μmol/kg SC, 6-h collection); 0 ± 0 number of fecal pellets in data set [1] (0.58 μmol/kg SC, 6-h collection); 0 ± 0 number of fecal pellets in data set [1] (1.16 μmol/kg SC, 6-h collection); 0 ± 0 number of fecal pellets in data set [1] (setting [7]). Also, the results for the “Stool Output” value in data set [4] (11.6 μmol/kg PO), in data set [4] (23.2 μmol/kg PO) and in data set [5] were 2.2 ± 1.3 number of fecal pellets, 2.0 ± 1.9 number of fecal pellets and 9.0 ± 1.6 number of fecal pellets, respectively. Besides, the “toxic effects observed in stressed rats” value in data set [1] (0.58 μmol/kg SC) was “^gToxic effects were evident, including huddling in the corner of the cage”; in data set [1] (1.16 μmol/kg SC), “^gToxic effects were evident, including huddling in the corner of the cage”; in data set [1] (2.3 μmol/kg SC), “^gToxic effects were evident, including huddling in the corner of the cage”. Besides, the “diminution in fecal output” value in data set [1] (0.07 :mol/kg SC) stood at 50%. In data set [1] (Rattus norvegicus, 0.0726 μmol/kg SC, vs stressed controls, 6 h, read-out: % Reduction), the inhibition in vivo at 0.0726 µmol/kg was determined as 52%. The inhibition in vivo at 0.145 µmol/kg in data set [1] (Rattus norvegicus, 0.145 μmol/kg SC, vs stressed controls, 6 h, read-out: % Reduction) worked out at 80%. For the same compound, in data set [1] (Rattus norvegicus, 0.29 μmol/kg SC, vs stressed controls, 6 h, read-out: % Reduction), the inhibition in vivo at 0.29 µmol/kg came to 95%. Further, the inhibition in vivo at 0.58 µmol/kg in data set [1] (Rattus norvegicus, 0.58 μmol/kg SC, vs stressed controls, 6 h, read-out: % Reduction) is 100%. In addition, the inhibition in vivo at 1.16 µmol/kg in data set [1] (Rattus norvegicus, 1.16 μmol/kg SC, vs stressed controls, 6 h, read-out: % Reduction) came out at 100%. Further, the inhibition in vivo at 2.3 µmol/kg in data set [1] (setting [10]) was 100%. For the same compound, the “activity at diminishing stress-induced fecal output (in words)” value in data set [1] (SC administration to stressed rats) is “most effective against stress-induced stooling, regardless of the mode of administration”. In addition, the “dose needed to reduce fecal output of the stressed animals to that of the unstressed controls” value in data set [1] (SC, rats) came out at 0.0625 mg/kg. For the same compound, the “lowest dose that reduced stool output by >50% relative to the stressed controls” value in data set [1] (SC, rats) was determined as 0.03125 mg/kg. The “1 mg/kg neurotoxic dose relative to lowest dose reducing stool output by >50%” value in data set [1] (rats, 1 mg/kg vs 0.03125 mg/kg) is recorded as “greater than 30 times”. Also, the “doses at which signs of motor dysfunction, including seizures, were observed” value in data set [2] (rats, rodent antidiarrheal model) was no less than 1 mg/kg. In addition, the “activity in castor oil-induced diarrhea model (in words)” value in data set [2] (rodent) is recorded as “most effective of the SPM analogues tested”. Besides, the acute toxicity entry in data set [6] (IP, female CD-1 mice, single dose, scored 2 h) is given as “about 150 mg/kg”. Also, in data set [6] (IP, single dose, mice), the “toxic doses (neurological signs)” value was no less than 125 mg/kg. In data set [6] (mouse toxic dose vs rat dose of 0.0625 mg/kg), the “toxic dose in mice, allometrically scaled, relative to the 0.0625 mg/kg effective dose in rats” value is given as “at least 1000 times”. Besides, the “signs of acute toxicity in mice” value in data set [6] (toxic doses, mice) is “uncoordinated movements, intention tremors, and severe motor dysfunction, especially of the hind limbs”.
